Measured values from PMC6661771, “Indole hybridized diazenyl derivatives: synthesis, antimicrobial activity, cytotoxicity evaluation and docking studies” (BMC Chemistry, 2019).
Converted amounts (≈) assume the structure as drawn. Where two headings read alike, the source gives them in different places.

Legend:
E. coli [1] = test: MIC by tube dilution method; format: cell-based; settings: 24 h at 37 °C
S. aureus [2] = test: MIC by tube dilution method; format: cell-based; settings: Staphylococcus aureus, 24 h at 37 °C, read-out: MIC
S. enterica [3] = test: MIC by tube dilution method; format: cell-based; settings: Salmonella enterica, 24 h, 24 h at 37 °C, read-out: MIC
B. subtilis [4] = test: MIC by tube dilution method; format: cell-based; settings: Bacillus subtilis, 24 h at 37 °C, read-out: MIC
K. pneumonia [5] = test: MIC by tube dilution method; format: cell-based; settings: 24 h at 37 °C
A. niger [6] = test: MIC by tube dilution method; format: cell-based; settings: Aspergillus niger, 168 h, 7 days at 25 °C, read-out: MIC
A. fumigatus [7] = test: MIC by tube dilution method; format: cell-based; settings: Aspergillus fumigatus, 168 h, 7 days at 25 °C, read-out: MIC
S. aureus [8] = test: Minimum bactericidal concentration (MBC); format: cell-based; settings: Staphylococcus aureus
S. enterica [9] = test: Minimum bactericidal concentration (MBC); format: cell-based; settings: Salmonella enterica, read-out: MBC/MFC
Description: After MIC assessment, the indole derivatives (DS1–DS21), were additionally evaluated for MBC and MFC values. […] The 10–15 ml of nutrient agar and Sabouraud dextrose agar was added to the petri plates for bacterial and fungal samples respectively with gentle shaking of plates in order to mix the culture throughout the media. Allowed the media to solidify. The petri plates were then incubated for the predefined time and temperature as referenced already for bacterial and fungal cultures respectively. The plates were then investigated visually for the development of microbial growth. The MBC and MFC were stated as the minimum concentration of the compounds in aliquots showing no visual growth after incubation.

B. subtilis [10] = test: Minimum bactericidal concentration (MBC); format: cell-based; settings: Bacillus subtilis
K. pneumonia [11] = test: Minimum bactericidal concentration (MBC); format: cell-based; settings: Klebsiella pneumoniae
A. niger [12] = test: Minimum fungicidal concentration (MFC); format: cell-based; settings: Aspergillus niger, read-out: MBC/MFC
A. fumigatus [13] = test: Minimum fungicidal concentration (MFC); format: cell-based; settings: Aspergillus fumigatus, read-out: MBC/MFC
K562 = test: MTT cell proliferation assay; format: cell-based; settings: Homo sapiens, K562 leukemia, 48 h of drug treatment
Description: (§1) The cell lines used in study were initially procured from the National Centre for Cell Sciences (NCCS), Pune, India, and maintained in DMEM. The cell line was cultured in 25 cm^2 tissue culture flask with DMEM supplemented with 10% FBS, sodium bicarbonate, L-glutamine, and antibiotic solution containing: streptomycin (100 μg/ml), penicillin (100 U/ml). Cultured cell line was kept at 37 °C in a humidified 5% CO2 incubator (VWR, USA).
(§2) The compounds found to have good antimicrobial potential were then screened for their cytotoxicity using MTT […]) assay. 1 × 10^4 cells/well were seeded in 100 µl DMEM/MEM, supplemented with 10% FBS in each well of 96-well microculture plates and incubated for 24 h at 37 °C in a CO2 incubator. After incubation, all the prepared/synthesized compounds were added to the cells at 10, 25, 50 and 100 µg concentrations for 48 h. After 48 h of drug treatment, 10 µl MTT (5 mg/ml) was added to each well and the plates were further incubated for 4 h. Then the supernatant from each well was carefully removed, formazan crystals were dissolved in 100 µl of DMSO and absorbance at 570 nm wavelength was recorded on an ELISA reader. The IC50 value was calculated using the linear regression equation i.e. Y = Mx + C. Here, Y = 50, M and C values were derived from the viability graph. The assay was performed in triplicate.

MDA MB 231 = test: MTT cell proliferation assay; format: cell-based; settings: MDA MB 231 breast cancer, 48 h of drug treatment
Description: as §1, §2

HEK-293 = test: MTT cell proliferation assay, normal cells; format: cell-based; settings: Homo sapiens, HEK293, HEK-293 normal cells, 48 h of drug treatment
Description: as §1, §2

E. coli [14] = test: Minimum bactericidal concentration (MBC); format: cell-based; settings: Escherichia coli
HCT 116 = test: MTT cell proliferation assay; format: cell-based; settings: Homo sapiens, HCT-116, 48 h, HCT 116 colon cancer, 48 h of drug treatment
Description: as §1, §2

[15] = Escherichia coli, 24 h, read-out: MIC
[16] = Klebsiella pneumoniae, 24 h, read-out: MIC
[17] = Homo sapiens, MDA-MB-231, 48 h, read-out: IC50

| SMILES | MIC (E. coli [1]; [15]) [mg/L] | MIC (S. aureus [2]) [mg/L] | MIC (S. enterica [3]) [mg/L] | MIC (B. subtilis [4]) [mg/L] | MIC (K. pneumonia [5]; [16]) [mg/L] | MIC (A. niger [6]) [mg/L] | MIC (A. fumigatus [7]) [mg/L] | MBC (S. aureus [8]) [mg/L] | MBC (S. enterica [9]; S. enterica, MBC) [mg/L] | MBC (B. subtilis [10]) [mg/L] | MBC (K. pneumonia [11]) [mg/L] | MFC (A. niger [12]) [mg/L] | MFC (A. fumigatus [13]) [mg/L] | IC50 (K562) [mg/L] | IC50 (MDA MB 231; [17]) [mg/L] | IC50 (HEK-293) [mg/L] | melting point [°C] | MBC (E. coli [14]) [mg/L] | IC50 (HCT 116) [mg/L] | further results |
| --- | --- | --- | --- | --- | --- | --- | --- | --- | --- | --- | --- | --- | --- | --- | --- | --- | --- | --- | --- | --- |
| C/C(=N/CCNc1cccc2ccccc12)c1ccc(/N=N\c2c[nH]c3ccccc23)cc1 [DS-20, (Z)-N1-(1-(4-((Z)-(1H-Indol-3-yl)diazenyl)phenyl)ethylidene)-N2-(naphthalen-1-yl)ethane-1,2-diamine] | 1.95 (≈ 4.52 µM) | 125 (≈ 290 µM) | 15.6 (≈ 36.2 µM) | 125 (≈ 290 µM) | 3.9 (≈ 9.04 µM) | 62.5 (≈ 145 µM) | 62.5 (≈ 145 µM) | 62.5 (≈ 145 µM) | 31.2 (≈ 72.4 µM) | 125 (≈ 290 µM) | 15.6 (≈ 36.2 µM) | 125 (≈ 290 µM) | 125 (≈ 290 µM) | 136 ± 4.74 (≈ 315 µM) | 19 to 65 (≈ 44 to 151 µM) | 233 ± 4.68 (≈ 539 µM) | 110 to 115 |  |  | IC50 (MDA MB 231): 20.95 ± 1.93 mg/L (≈ 48.5 µM) |
| CCOC(=O)c1c(/N=C(/C)c2ccc(/N=N\c3c[nH]c4ccccc34)cc2)sc2c1CCCC2 [DS-2, Ethyl 2-((Z)-(1-(4-((Z)-(1H-indol-3-yl)diazenyl)phenyl)ethylidene)amino)-4,5,6,7-tetrahydrobenzo[b]thiophene-3-carboxylate] | 15.6 (≈ 33.2 µM) | 62.5 (≈ 133 µM) | 15.6 (≈ 33.2 µM) | 31.2 (≈ 66.4 µM) | 31.2 (≈ 66.4 µM) | 62.5 (≈ 133 µM) | 15.6 (≈ 33.2 µM) | 125 (≈ 266 µM) |  | 125 (≈ 266 µM) | 62.5 (≈ 133 µM) | 125 (≈ 266 µM) | 62.5 (≈ 133 µM) | 140 ± 4.4 (≈ 298 µM) | 57.6 ± 3.68 (≈ 122 µM) |  | 260 to 265 | 16.2 (≈ 34.5 µM) | 117 ± 4.28 (≈ 248 µM) | MBC (S. enterica [9]): 15.6 mg/L (≈ 33.2 µM) |
| C/C(=N/c1c(C)n(C)n(-c2ccccc2)c1=O)c1ccc(/N=N\c2c[nH]c3ccc([N+](=O)[O-])cc23)cc1 [DS-6, 1,5-Dimethyl-4-((Z)-(1-(4-((Z)-(5-nitro-1H-indol-3-yl)diazenyl)phenyl)ethylidene)amino)-2-phenyl-1H-pyrazol-3(2H)-one] | 1.95 (≈ 3.95 µM) | 31.2 (≈ 63.3 µM) | 31.2 (≈ 63.3 µM) | 31.2 (≈ 63.3 µM) | 7.81 (≈ 15.8 µM) | 62.5 (≈ 127 µM) | 31.2 (≈ 63.3 µM) | 31.2 (≈ 63.3 µM) | 31.2 (≈ 63.3 µM) | 62.5 (≈ 127 µM) |  | 125 (≈ 253 µM) | 125 (≈ 253 µM) | 188 ± 1.94 (≈ 380 µM) | 119 ± 1.92 (≈ 241 µM) | 257.8 ± 0.57 (≈ 522 µM) | 170 to 175 | 3.9 to 7.81 (≈ 7.9 to 15.8 µM) | 139 ± 4.29 (≈ 282 µM) |  |
| C/C(=N/c1ccc(C(=O)O)cc1)c1ccc(/N=N\c2c[nH]c3ccccc23)cc1 [DS-14, 4-((Z)-(1-(4-((Z)-(1H-Indol-3-yl)diazenyl)phenyl)ethylidene)amino)benzoic acid] | 1.95 to 3.9 (≈ 5.1 to 10.2 µM) | 62.5 (≈ 163 µM) | 1.95 to 3.9 (≈ 5.1 to 10.2 µM) | 31.2 (≈ 81.7 µM) | 1.95 to 3.9 (≈ 5.1 to 10.2 µM) | 62.5 (≈ 163 µM) | 31.2 (≈ 81.7 µM) | 62.5 (≈ 163 µM) | 7.81 (≈ 20.4 µM) | 62.5 (≈ 163 µM) | 3.9 to 7.81 (≈ 10.2 to 20.4 µM) | 125 (≈ 327 µM) | 125 (≈ 327 µM) | 112 ± 3.64 (≈ 294 µM) | 19 to 65 (≈ 49.7 to 170 µM) | 244 ± 3.78 (≈ 638 µM) | 205 to 210 |  |  | MIC (E. coli [1]): 3.90 mg/L (≈ 10.2 µM); MIC (K. pneumonia [5]): 1.95 mg/L (≈ 5.1 µM); IC50 (MDA MB 231): 19.10 ± 1.43 mg/L (≈ 49.9 µM) |
| C/C(=N/c1nnc(-c2ccc([N+](=O)[O-])cc2Cl)s1)c1ccc(/N=N\c2c[nH]c3ccc([N+](=O)[O-])cc23)cc1 [DS-3, (Z)-5-(2-Chloro-4-nitrophenyl)-N-(1-(4-((Z)-(5-nitro-1H-indol-3-yl)diazenyl)phenyl)ethylidene)-1,3,4-thiadiazol-2-amine] | 3.9 (≈ 7.13 µM) | 62.5 (≈ 114 µM) | 31.2 (≈ 57.1 µM) | 31.2 (≈ 57.1 µM) | 1.95 (≈ 3.57 µM) | 62.5 (≈ 114 µM) | 15.6 (≈ 28.6 µM) | 62.5 (≈ 114 µM) | 31.2 (≈ 57.1 µM) | 62.5 (≈ 114 µM) | 31.2 (≈ 57.1 µM) | 125 (≈ 229 µM) | 62.5 (≈ 114 µM) | 146 ± 2.11 (≈ 267 µM) | 46 ± 1.83 (≈ 84 µM) | 311.2 ± 1.76 (≈ 569 µM) | 155 to 160 | 31.2 (≈ 57.1 µM) | 110 ± 2.55 (≈ 201 µM) |  |
| C/C(=N/c1cc(Cl)ccc1Cl)c1ccc(/N=N\c2c[nH]c3ccc([N+](=O)[O-])cc23)cc1 [DS-10, (Z)-2,5-Dichloro-N-(1-(4-((Z)-(5-nitro-1H-indol-3-yl)diazenyl)phenyl)ethylidene)aniline] | 1.95 (≈ 4.31 µM) | 62.5 (≈ 138 µM) | 31.2 (≈ 69.1 µM) | 62.5 (≈ 138 µM) | 3.9 (≈ 8.62 µM) | 62.5 (≈ 138 µM) | 125 (≈ 276 µM) | 125 (≈ 276 µM) | 62.5 (≈ 138 µM) | 125 (≈ 276 µM) |  | 125 (≈ 276 µM) | 125 (≈ 276 µM) | 199 ± 3.13 (≈ 439 µM) | 130 ± 3.51 (≈ 287 µM) | 274 ± 4.58 (≈ 606 µM) | 210 to 215 | 31.2 (≈ 69.1 µM) | 204.9 ± 1.62 (≈ 453 µM) |  |
| C/C(=N/c1nc2ccccc2s1)c1ccc(/N=N\c2c[nH]c3ccc([N+](=O)[O-])cc23)cc1 [DS-21, (Z)-N-(1-(4-((Z)-(5-Nitro-1H-indol-3-yl)diazenyl)phenyl)ethylidene)benzo[d]thiazol-2-amine] | 3.9 (≈ 8.85 µM) | 62.5 (≈ 142 µM) | 31.2 (≈ 70.9 µM) | 31.2 (≈ 70.9 µM) | 3.9 (≈ 8.85 µM) | 125 (≈ 284 µM) | 125 (≈ 284 µM) | 62.5 (≈ 142 µM) | 31.2 (≈ 70.9 µM) | 62.5 (≈ 142 µM) |  | 125 (≈ 284 µM) | 125 (≈ 284 µM) | 158 ± 3.73 (≈ 359 µM) | 49.3 ± 4.15 (≈ 112 µM) | 142 ± 3.25 (≈ 322 µM) | 130 to 135 |  | 125 ± 1.33 (≈ 283 µM) |  |
